The results in this text go back to patent US12590067B2, “Herbicidal cyclohexanedione derivatives” (SYNGENTA CROP PROTECTION AG, priority 2019, dated 2026).

Each structure is given as a SMILES string.

Holding throughout (assay): Glasshouse herbicidal test, pre- and post-emergence, percentage damage to the plant
Common to all, as to assay type: in vivo

The subject of assay [1] is Avena fatua (AVEFA). As to conditions: 250 g/h, evaluated after 13 days; for AVEFA POST percentage damage caused to the plant (five-point scale): post-emergence; for AVEFA PRE percentage damage caused to the plant (five-point scale): pre-emergence. The gist of the method:
(§1)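 Spraying at 250 g/h took place either pre-emergence (one day after sowing) or post-emergence (after eight days' cultivation). Percentage damage was evaluated 13 days afterwards and binned into five classes, 1=0-19% up to 5=80-100%.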

The test system of assay [2] is Alopecurus myosuroides (ALOMY). The settings on record: 250 g/h, evaluated after 13 days; for ALOMY POST percentage damage caused to the plant (five-point scale): post-emergence; for ALOMY PRE percentage damage caused to the plant (five-point scale): pre-emergence. The gist of the method: as §1
The test system of assay [3] is Setaria faberi (SETFA). As to conditions: 250 g/h, evaluated after 13 days; for SETFA POST percentage damage caused to the plant (five-point scale): post-emergence; for SETFA PRE percentage damage caused to the plant (five-point scale): pre-emergence. An outline of the steps: as §1
For assay [4], the system named is Lolium perenne (LOLPE). As to conditions: 250 g/h, evaluated after 13 days; for LOLPE POST percentage damage caused to the plant (five-point scale): post-emergence; for LOLPE PRE percentage damage caused to the plant (five-point scale): pre-emergence. The gist of the method: as §1
The subject of assay [5] is Echinochloa crus-galli (ECHCG). The settings on record: 250 g/h, evaluated after 13 days; for ECHCG POST percentage damage caused to the plant (five-point scale): post-emergence; for ECHCG PRE percentage damage caused to the plant (five-point scale): pre-emergence. The gist of the method:
as §1

On to `CCc1cc(-c2ccc(C#N)cn2)cc(Cl)c1C1C(=O)CC2(CCN(C(=O)C3CC3)CC2)CC1=O` [Compound A53], for which, in assay [1], the “AVEFA POST percentage damage caused to the plant (five-point scale)” value (“AVEFA POST percentage damage caused” for short) is listed as 5 (5=80-100%) and the “AVEFA PRE percentage damage caused to the plant (five-point scale)” value (from here on “AVEFA PRE percentage damage caused”) was 5 (5=80-100%). Further, in assay [2], the “ALOMY POST percentage damage caused to the plant (five-point scale)” value (“ALOMY POST percentage damage caused” for short) is listed as 5 (5=80-100%) and the “ALOMY PRE percentage damage caused to the plant (five-point scale)” value (from here on “ALOMY PRE percentage damage caused”) is recorded as 5 (5=80-100%). Besides, in assay [3], the “SETFA POST percentage damage caused to the plant (five-point scale)” value (“SETFA POST percentage damage caused” for short) was 5 (5=80-100%) and the “SETFA PRE percentage damage caused to the plant (five-point scale)” value (from here on “SETFA PRE percentage damage caused”) is 5 (5=80-100%). Besides, in assay [4], the “LOLPE POST percentage damage caused to the plant (five-point scale)” value (“LOLPE POST percentage damage caused” for short) is recorded as 5 (5=80-100%) and the “LOLPE PRE percentage damage caused to the plant (five-point scale)” value (from here on “LOLPE PRE percentage damage caused”) is 5 (5=80-100%). In assay [5], the “ECHCG POST percentage damage caused to the plant (five-point scale)” value (“ECHCG POST percentage damage caused” for short) is on record as 5 (5=80-100%) and the “ECHCG PRE percentage damage caused to the plant (five-point scale)” value (from here on “ECHCG PRE percentage damage caused”) is given as 5 (5=80-100%).
On to `CC#Cc1cc(C)c(C2C(=O)CC3(CCN(C(C)=O)CC3)CC2=O)c(Cl)c1` [Compound A55], for which, in assay [1], the “AVEFA POST percentage damage caused” value is 5 (5=80-100%) and the “AVEFA PRE percentage damage caused” value is 5 (5=80-100%). Besides, in assay [2], the “ALOMY POST percentage damage caused” value is 5 (5=80-100%) and the “ALOMY PRE percentage damage caused” value was 5 (5=80-100%). Further, in assay [3], the “SETFA POST percentage damage caused” value is reported as 5 (5=80-100%) and the “SETFA PRE percentage damage caused” value is 5 (5=80-100%). In assay [4], the “LOLPE POST percentage damage caused” value is 5 (5=80-100%) and the “LOLPE PRE percentage damage caused” value is reported as 5 (5=80-100%). In assay [5], the “ECHCG POST percentage damage caused” value is reported as 5 (5=80-100%) and the “ECHCG PRE percentage damage caused” value is on record as 5 (5=80-100%).
Regarding `CC(=O)N1CCC2(CC1)CC(=O)C(c1c(C)cc(-c3ccc(C#N)cn3)cc1Cl)C(=O)C2` [Compound A56], in assay [1], the “AVEFA POST percentage damage caused” value is 5 (5=80-100%) and the “AVEFA PRE percentage damage caused” value is reported as 3 (3=40-59%). For the same compound, in assay [2], the “ALOMY POST percentage damage caused” value was 5 (5=80-100%) and the “ALOMY PRE percentage damage caused” value is 3 (3=40-59%). Also, in assay [3], the “SETFA POST percentage damage caused” value is listed as 5 (5=80-100%) and the “SETFA PRE percentage damage caused” value was 5 (5=80-100%). Moreover, in assay [4], the “LOLPE POST percentage damage caused” value is listed as 5 (5=80-100%) and the “LOLPE PRE percentage damage caused” value is given as 5 (5=80-100%). Further, in assay [5], the “ECHCG POST percentage damage caused” value is recorded as 5 (5=80-100%) and the “ECHCG PRE percentage damage caused” value is 4 (4=60-79%).
`Cc1cc(-c2ccc(C#N)cn2)cc(Cl)c1C1C(=O)CC2(CCN(C(=O)C3CC3)CC2)CC1=O` [Compound A57]: in assay [1], the “AVEFA POST percentage damage caused” value is on record as 5 (5=80-100%) and the “AVEFA PRE percentage damage caused” value is recorded as 5 (5=80-100%). Besides, in assay [2], the “ALOMY POST percentage damage caused” value was 5 (5=80-100%) and the “ALOMY PRE percentage damage caused” value was 5 (5=80-100%). Also, in assay [3], the “SETFA POST percentage damage caused” value is reported as 5 (5=80-100%) and the “SETFA PRE percentage damage caused” value was 5 (5=80-100%). Also, in assay [4], the “LOLPE POST percentage damage caused” value is 5 (5=80-100%) and the “LOLPE PRE percentage damage caused” value is recorded as 5 (5=80-100%). Also, in assay [5], the “ECHCG POST percentage damage caused” value was 5 (5=80-100%) and the “ECHCG PRE percentage damage caused” value is given as 5 (5=80-100%).
In the case of `Cc1cc(-c2ccc(F)cn2)cc(Cl)c1C1C(=O)CC2(CCN(C(=O)C3CC3)CC2)CC1=O` [Compound A58], in assay [1], the “AVEFA POST percentage damage caused” value is 5 (5=80-100%) and the “AVEFA PRE percentage damage caused” value is 5 (5=80-100%). Further, in assay [2], the “ALOMY POST percentage damage caused” value is reported as 5 (5=80-100%) and the “ALOMY PRE percentage damage caused” value is on record as 5 (5=80-100%). For the same compound, in assay [3], the “SETFA POST percentage damage caused” value is given as 5 (5=80-100%) and the “SETFA PRE percentage damage caused” value is reported as 5 (5=80-100%). Moreover, in assay [4], the “LOLPE POST percentage damage caused” value is recorded as 5 (5=80-100%) and the “LOLPE PRE percentage damage caused” value was 5 (5=80-100%). Moreover, in assay [5], the “ECHCG POST percentage damage caused” value is reported as 5 (5=80-100%) and the “ECHCG PRE percentage damage caused” value is listed as 5 (5=80-100%).
